Values quoted from earlier work in patent US20220168301A1, “METHODS FOR TREATING SYMPTOMATIC ORTHOSTATIC HYPOTENSION” (Cerecor Inc, priority 2019, published 2022).

Tested on: patients with nOH
Conditions: Phase III clinical trials; cited from earlier work

**Q.** What does the source list for `N[C@H](C(=O)O)[C@H](O)c1ccc(O)c(O)c1` [droxidopa, L-threo-3,4-dihydroxyphenyl-serine]?
**A.** Standing systolic blood pressure: increase in standing systolic blood pressure; Symptoms of nOH (dizziness, lightheadedness or feeling about to faint): significant improvement in symptoms of nOH
